Data: patent US20240408088A1, “PYRAZOLE DERIVATIVE, AND PREPARATION METHOD THEREFOR AND USE THEREOF IN MEDICINE” (Abbisko Therapeutics Co., Ltd., priority 2021, published 2024)
Where two headings read alike, the source gives them in different places.

Tests used:
[1] = test system: HCT 116 MTAP wild-type cells; assay: Human colon cancer HCT116 cell proliferation inhibition test (MTAP wild-type cells, CellTiter-Glo, 6 days); format: cell-based; details: HCT-116, 144 h
Experimental: (§1) • 1. HCT 116 MTAP knockout and MTAP wild-type cells were plated in 96-well flat bottom 5 plates, and cultured overnight with McCoy's 5A medium containing […]+1% penicillin-streptomycin at 37° C. and 5% CO2. • 2. On the next day, the compound was dissolved with DMSO, diluted with DMSO and medium successively and transferred to the cell plate. The final concentration of the compound was 10 μM, the compound was diluted 4 times, with 9 concentration gradients, and DMSO control was added. • 3. Cells that have not been treated with the compound were removed. CellTiter-Glo Luminescent Cell Viability Assay (Promega) was used to detect cell viability, the operation was performed with reference to the package insert of the kit, and then the cell plate was placed on EnVision Multilabel Reader to detect the cold light signal. • 4. Meanwhile, the cell plate treated with the compound was cultured at 37° C. and 5% CO2 for 6 consecutive days. • 5. Then, CellTiter-Glo was also used to detect cell viability. • 6. Finally, the four-parameter dose-response curve module of GraphPad Prism v 9.2.0 software was used to plot the dose-response curve and calculate the IC50 for proliferation inhibition (unit: nM).

[2] = test system: HCT 116 MTAP knockout cells; assay: Human colon cancer HCT116 cell proliferation inhibition test (MTAP knockout cells, CellTiter-Glo, 6 days); format: cell-based
Experimental: as §1

[3] = Pharmacokinetic assay in mice, single oral administration; format: in vivo; details: male, mouse, ICR mice, 10 mg/kg, plasma
Experimental: The purpose of this trial is to study the pharmacokinetic behavior of some compounds of the present invention, and the administration method is: Single oral administration (PO) to ICR mice:
ICR mice male N=3 original source: Shanghai Sippr-Bk Lab Animal Co., Ltd.
The compounds were weighed and dissolved in 20% PG+10% Solutol HS15+70% pH 3 citrate buffer, respectively, shaken well and sonicated to prepare colorless clear solutions or suspensions. Nine mice were administered orally at a dose of 10 mg/kg after an overnight fast.
About 90 μL of blood was collected via the submandibular vein per time point, heparin sodium anticoagulant was added, the sample was placed on ice after collection, and plasma was centrifuged within 1 hour (centrifugation conditions: 8,000 rpm, 6 minutes, 2-8° C.). The blood collection time points were 0, 0.25, 0.5, 1, 2, 4, 6, 8 and 24 h. The samples were stored in a refrigerator at −20° C.
The plasma sample was 40 μL, 160 μL of ice-cold acetonitrile containing internal standard was added, vortexed for 3 minutes, and centrifuged at 11,000 rpm for 5 minutes. 100 μL of the supernatant was taken and added to 100 μL of water, 5 μL of the sample was taken and injected into LC/MS/MS for analysis (see the table below for the results).
PK Results for Single Oral Administration (PO) of 10 mg/kg of Compounds to Mice

[4] = Liver microsomal stability experiment; format: in vitro ADME; details: pH 7.4; human liver microsomes, NADPH, 37° C., 0-45 min; read-out: Human Liver Microsome Stability Half-Life T1/2
Experimental: Buffer solution A: 1.0 L of 0.1 M potassium dihydrogen phosphate buffer solution (containing 1.0 mM EDTA);
Buffer solution B: 1.0 L of 0.1 M dipotassium phosphate buffer solution (containing 1.0 mM EDTA);
Buffer solution C: Buffer solution A was added to 700 mL of buffer solution B. The addition was stopped when pH reached 7.4.
The selected compounds of the examples and reference standards were dissolved in DMSO to prepare a stock solution of 10 mM.
• 500 μM solution: 10 μL of 10 mM stock solution was added to 190 μL of ACN; • 1.5 μM dosing solution (dissolved in liver microsome solution, human liver microsomes were purchased from Xenotech): 18.75 μL of 20 mg/mL liver microsomes was added to 479.75 μL of buffer solution C, then 1.5 μL of 500 μM solution was added and mixed well with gentle shaking.
NADPH was weighted, then an appropriate amount of buffer solution C was added to prepare a 6 mM of NADPH solution.
• 1. 30 μL of 1.5 μM dosing solution was added to the wells set to different time points (0 min, 5 min, 15 min, 30 min and 45 min) on a 96-well plate. 2 replicates were made. • 2. Preparation of the 0-min sample: 135 μL of ACN (containing internal standard) was first added to the 0-min well, and 15 μL of 6 mM NADPH solution was added. • 3. A 96-well plate containing 1.5 μM of dosing solution and NADPH solution were pre-warmed in a 37° C. water bath for 5 minutes. • 4. Pre-warmed 15 μL of 6 mM NADPH solution was added to the wells set to 5 min, 15 min, 30 min and 45 min, the reaction was started and the timing was started. • 5. […] The solution was vortexed for 10 minutes, and the sample was centrifuged on a centrifuge at 5594×g for 15 minutes. • 6. 50 μL of supernatant was taken from the centrifuged sample, transferred to a 96-well sample plate that has been added with 50 μL of water, mixed, and finally sent to LC-MS/MS for analysis. The half-life was calculated based on the test results.

Structure (SMILES) | IC50 [1] [nM] | IC50 [2] [nM] | AUC(0-t) [3] [ng·h/mL] | Cmax [3] [ng/mL] | half-life [3] [h] | half-life at 1 µM [4] [h] | IC50 ([2]; Homo sapiens, HCT-116, 144 h) [nM]
Cn1ncc(-c2cc(C#N)c3c(=O)[nH]nc(CN)c3c2)c1-c1c(F)cc2ccccc2c1C#N [Example 1, 1-(aminomethyl)-7-(5-(1-cyano-3-fluoronaphthalen-2-yl)-1-methyl-1H-pyrazol-4-yl)-4-oxo-3,4-dihydrophthalazine-5-carbonitrile] | 2360 | 29 | 2530 | 1750 | 1.2 | 3.37 | –
Cn1ncc(-c2cc(C#N)c3c(=O)[nH]nc(CN)c3c2)c1-c1c(F)c(Cl)cc(OC2CC2)c1C#N [Example 6, 1-(aminomethyl)-7-(5-(3-chloro-6-cyano-5-cyclopropoxy-2-fluorophenyl)-1-methyl-1H-pyrazol-4-yl)-4-oxo-3,4-dihydrophthalazine-5-carbonitrile] | – | – | 2900 | 973 | 5.1 | 2.05 | 70
Cn1ncc(-c2cc(C#N)c3c(=O)[nH]nc(CN)c3c2)c1-c1c(F)c(Cl)cc(N2CCCC2)c1C#N [Example 9, 1-(aminomethyl)-7-(5-(3-chloro-6-cyano-2-fluoro-5-(pyrrolidin-1-yl)phenyl)-1-methyl-1H-pyrazol-4-yl)-4-oxo-3,4-dihydrophthalazine-5-carbonitrile] | – | – | 2230 | 844 | 6.9 | 0.633 | 58
Cn1ncc(-c2ccc3c(=O)[nH]nc(CN)c3c2)c1-c1c(F)c(Cl)cc(N2CC(C)(F)C2)c1C#N [Example 18, 2-(4-(4-(aminomethyl)-1-oxo-1,2-dihydrophthalazin-6-yl)-1-methyl-1H-pyrazol-5-yl)-4-chloro-3-fluoro-6-(3-fluoro-3-methylazetidin-1-yl)benzonitrile] | 5600 | – | – | – | – | – | 123
Cn1ncc(-c2ccc3c(=O)[nH]nc(CN)c3c2)c1-c1c(F)c(Cl)cc(N2CCC(F)(F)C2)c1C#N [Example 19, 2-(4-(4-(aminomethyl)-1-oxo-1,2-dihydrophthalazin-6-yl)-1-methyl-1H-pyrazol-5-yl)-4-chloro-6-(3,3-difluoropyrrolidin-1-yl)-3-fluorobenzonitrile] | 3260 | – | – | – | – | – | 80
COC1CN(c2cc(OC3CC3)c(C#N)c(-c3c(-c4ccc5c(=O)[nH]nc(CN)c5c4)cnn3C)c2F)C1 [Example 23, 2-(4-(4-(aminomethyl)-1-oxo-1,2-dihydrophthalazin-6-yl)-1-methyl-1H-pyrazol-5-yl)-6-cyclopropoxy-3-fluoro-4-(3-methoxyazetidin-1-yl)benzonitrile] | 3660 | – | – | – | – | – | 120
COC1CCN(c2cc(OC3CC3)c(C#N)c(-c3c(-c4ccc5c(=O)[nH]nc(CN)c5c4)cnn3C)c2F)C1 (stereo not drawn) [Example 26, 2-(4-(4-(aminomethyl)-1-oxo-1,2-dihydrophthalazin-6-yl)-1-methyl-1H-pyrazol-5-yl)-6-cyclopropoxy-3-fluoro-4-(3-methoxypyrrolidin-1-yl)benzonitrile] | 2490 | – | – | – | – | – | 34
Cn1ncc(-c2ccc3c(=O)[nH]nc(CN)c3c2)c1-c1c(F)c(Cl)cc(N2CC(C(F)F)C2)c1C#N [Example 30, 2-(4-(4-(aminomethyl)-1-oxo-1,2-dihydrophthalazin-6-yl)-1-methyl-1H-pyrazol-5-yl)-4-chloro-6-(3-(difluoromethyl)azetidin-1-yl)-3-fluorobenzonitrile] | 2660 | – | – | – | – | – | 44
Cn1ncc(-c2ccc3c(=O)[nH]nc(CN)c3c2)c1-c1c(F)c(Cl)cc(OC2CC(F)(F)C2)c1C#N [Example 37, 2-(4-(4-(aminomethyl)-1-oxo-1,2-dihydrophthalazin-6-yl)-1-methyl-1H-pyrazol-5-yl)-4-chloro-6-(3,3-difluorocyclobutoxy)-3-fluorobenzonitrile] | – | – | – | – | – | – | 133

More lines, in order of falling IC50 ([2]; Homo sapiens, HCT-116, 144 h), values ahead:

IC50 [1] [nM] | IC50 [2] [nM] | AUC(0-t) [3] [ng·h/mL] | Cmax [3] [ng/mL] | half-life [3] [h] | half-life at 1 µM [4] [h] | IC50 ([2]; Homo sapiens, HCT-116, 144 h) [nM] | Structure (SMILES)
1050 | – | – | – | – | – | 29 | Cn1ncc(-c2cc(C3CC3)c3c(=O)[nH]nc(CN)c3c2)c1-c1c(F)cc2ccccc2c1C#N [Example 3, 2-(4-(4-(aminomethyl)-8-cyclopropyl-1-oxo-1,2-dihydrophthalazin-6-yl)-1-methyl-1H-pyrazol-5-yl)-3-fluoro-1-naphthalenenitrile]
2540 | – | – | – | – | – | 21 | Cn1ncc(-c2ccc3c(=O)[nH]nc(CN)c3c2)c1-c1c(F)c(N2CCCC2)cc(OC2CC2)c1C#N [Example 16, 2-(4-(4-(aminomethyl)-1-oxo-1,2-dihydrophthalazin-6-yl)-1-methyl-1H-pyrazol-5-yl)-6-cyclopropoxy-3-fluoro-4-(pyrrolidin-1-yl)benzonitrile]
1150 | – | – | – | – | – | 20 | Cn1ncc(-c2ccc3c(=O)[nH]nc(CN)c3c2)c1-c1c(F)c(Cl)cc(N2CC3(C2)CC3(F)F)c1C#N [Example 29, 2-(4-(4-(aminomethyl)-1-oxo-1,2-dihydrophthalazin-6-yl)-1-methyl-1H-pyrazol-5-yl)-4-chloro-6-(1,1-difluoro-5-azaspiro[2.3]hexan-5-yl)-3-fluorobenzonitrile]
– | – | 2710 | 576 | 3.2 | 0.867 | 18 | Cn1ncc(-c2cc(C3CC3)c3c(=O)[nH]nc(CN)c3c2)c1-c1c(F)c(Cl)cc(OC2CC2)c1C#N [Example 8, 2-(4-(4-(aminomethyl)-8-cyclopropyl-1-oxo-1,2-dihydrophthalazin-6-yl)-1-methyl-1H-pyrazol-5-yl)-4-chloro-6-cyclopropoxy-3-fluorobenzonitrile]
761 | – | 2980 | 810 | 5 | 0.45 | 17 | Cn1ncc(-c2ccc3c(=O)[nH]nc(CN)c3c2)c1-c1c(F)c(Cl)cc(N2CCCC2)c1C#N [Example 28, 2-(4-(4-(aminomethyl)-1-oxo-1,2-dihydrophthalazin-6-yl)-1-methyl-1H-pyrazol-5-yl)-4-chloro-3-fluoro-6-(pyrrolidin-1-yl)benzonitrile]
2360 | – | – | – | – | – | 14 | Cn1ncc(-c2ccc3c(=O)[nH]nc(CN)c3c2)c1-c1c(F)c(Cl)cc(N2CC(F)(F)C2)c1C#N [Example 14, 2-(4-(4-(aminomethyl)-1-oxo-1,2-dihydrophthalazin-6-yl)-1-methyl-1H-pyrazol-5-yl)-4-chloro-6-(3,3-difluoroazetidin-1-yl)-3-fluorobenzonitrile]
– | – | 1440 | 378 | 4 | 0.717 | 9 | C#Cc1cc(-c2cnn(C)c2-c2c(F)cc3ccccc3c2C#N)cc2c(CN)n[nH]c(=O)c12 [Example 2, 2-(4-(4-(aminomethyl)-8-ethynyl-1-oxo-1,2-dihydrophthalazin-6-yl)-1-methyl-1H-pyrazol-5-yl)-3-fluoro-1-naphthalenenitrile]
